Results taken from patent publication US20110098358A1, “HUMAN BETA3 ADRENERGIC RECEPTOR LIGAND, AND FOOD OR PHARMACEUTICAL PRODUCT CONTAINING THE SAME” (RICOM CORPORATION, priority 2008, published 2011).
Structures can show the parent of a compound that is named as a salt.

What was measured:
[1] = molecular target: T1, human recombinant adrenergic β3 receptor (Homo sapiens, UniProt P13945); assay: adrenergic β3 receptor binding activity ([125I]cyanopindolol); settings: HEK-293 cells, 0.5 nM [125I]cyanopindolol, Tris buffer pH 7.4, 25° C., 90 minutes
T1 construct: expressed in transfected cells; host or cells: HEK-293 cells
Description: The adrenergic β3 receptor binding activity can be measured according to, for example, the method described in Cell Biology: Feve et al, Proc. Natl. Acad. Sci. USA 91 (1994), Vol. 91, pp. 5677-5681, using HEK-293 cells which express a human recombinant adrenergic β3 receptor. That is, a solution of a sample in 1% DMSO, and 0.5 nM [^125I]cyanopindolol are added to Tris buffer (pH 7.4), and the HEK-293 cells are cultured therein at 25° C. for 90 minutes, followed by filtration and washing of the cells, and measurement of the radioactivity of the adrenergic β3 receptor binding ligand.
Each component containing the components shown in Table 1 below was dissolved in DMSO to 1 w/v %, and the resulting solution was added to an adipocyte differentiation medium (Primary Cell Co., Ltd., Lot No. 080411) to a final concentration of 10 μg/mL before use. The test of the adrenergic β3 receptor binding activity was carried out by the above-mentioned method.

[2] = system: periepididymal preadipocytes (EAC); assay: observation of cell morphology (EAC), fat accumulation and reaction to NE; assay type: cell-based, rat; settings: NE 1×10^−6 M, 6 hours on last day
Description: (§1) Using 4 types of rat primary preadipocytes (visceral fat, […], subcutaneous white fat and brown fat), the fat accumulation-suppressing effect and fat-releasing effect by the composition of the present invention were preliminarily studied in vitro. […] The test of the adrenergic β3 receptor binding activity was carried out by the above-mentioned method. The Preadipocyte Culture kit H-3 with 3 types of cells (primary, rat, Primary Cell Co., Ltd.: visceral preadipocytes (hereinafter referred to as VAC), Lot No. FIHA-FV; subcutaneous white preadipocytes (hereinafter referred to as […] preadipocytes (hereinafter referred to as EAC), FIHA-FE) and the Brown Adipocyte Culture kit F-8 (primary, rat, Primary Cell Co., Ltd.: Lot No. HDOA-1) were used. The 3 types of preadipocytes (visceral fat, […] subcutaneous white fat) were seeded into 12 wells in a 24-well plate at a cell number of 1.5×10^6 (1.2×10^5 cells/mL/well), followed by preculture for 4 days in the adipocyte differentiation medium. Thereafter (on day 4 after seeding), the negative control substance and the test substance were prepared to a predetermined concentration in a visceral fat differentiation medium, and the prepared medium was added to the cells. The medium was replaced on days 0, 2 and 4 after the addition of the test substance (days 4, 6 and 8 after seeding), while adding freshly prepared medium after the collection. […]

[3] = system: brown adipocytes (BAT); assay: observation of cell morphology (BAT), fat accumulation and reaction to NE; assay type: cell-based, rat; settings: 1 hour on last day
Description: Using 4 types of rat primary preadipocytes (visceral fat, […], subcutaneous white fat and brown fat), the fat accumulation-suppressing effect and fat-releasing effect by the composition of the present invention were preliminarily studied in vitro. […] The test of the adrenergic β3 receptor binding activity was carried out by the above-mentioned method. The Preadipocyte Culture kit H-3 with 3 types of cells (primary, rat, Primary Cell Co., Ltd.: visceral preadipocytes (hereinafter referred to as VAC), Lot No. FIHA-FV; subcutaneous white preadipocytes (hereinafter referred to as […] preadipocytes (hereinafter referred to as EAC), FIHA-FE) and the Brown Adipocyte Culture kit F-8 (primary, rat, Primary Cell Co., Ltd.: Lot No. HDOA-1) were used. Cells seeded on a 24-well plate were cultured in a growth medium for 3 days, and the cells were confirmed to have become confluent. After replacing the medium with a differentiation induction medium, the culture was continued for 2 days, and the negative control substance and the test substance were prepared to a predetermined concentration with a maintenance medium, followed by addition of the prepared medium and 4 days of culture. The treatment with NE was carried out in the same manner as in VAC, using the maintenance medium. […]

[4] = system: subcutaneous white preadipocytes (SAC); assay: observation of cell morphology (SAC), fat accumulation and reaction to NE; assay type: cell-based, rat; settings: NE 1×10^−6 M, 6 hours on last day
Description: as §1

[5] = system: visceral preadipocytes (VAC); assay: observation of cell morphology (VAC), fat accumulation and reaction to NE; assay type: cell-based, rat; settings: NE 1×10^−6 M, 6 hours on last day
Description: as §1

T1 sequence (P13945 whole entry): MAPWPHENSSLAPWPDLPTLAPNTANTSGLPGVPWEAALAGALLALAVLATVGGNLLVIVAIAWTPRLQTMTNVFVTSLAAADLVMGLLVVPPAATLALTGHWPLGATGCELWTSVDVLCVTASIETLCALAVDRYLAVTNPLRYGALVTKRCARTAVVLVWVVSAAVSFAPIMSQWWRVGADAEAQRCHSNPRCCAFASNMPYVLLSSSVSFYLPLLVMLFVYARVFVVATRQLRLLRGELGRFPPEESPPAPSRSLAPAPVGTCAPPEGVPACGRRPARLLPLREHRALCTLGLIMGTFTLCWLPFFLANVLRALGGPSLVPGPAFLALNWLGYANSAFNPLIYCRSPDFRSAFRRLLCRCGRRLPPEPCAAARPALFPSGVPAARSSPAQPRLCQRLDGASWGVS

Row | SMILES | Binding activity (%) [1] | reaction by the addition of NE (morphology) [2] | reaction by 1 hour of treatment with NE (morphology) [3] | reaction by the addition of NE (morphology) [4] | reaction by treatment with NE (morphology) [5]
1 | CC/C=C\C/C=C\C/C=C\CCCCCCCC(=O)O [compound 7, C18:3α] | 22% |  |  |  | 
2 | NC[C@H](O)c1ccc(O)c(O)c1 [NE, (−)-Norepinephrine(+)-bitartrate salt hydrate] |  | reaction by the addition of NE was obtained | sufficiently confirmed | reaction by the addition of NE was obtained | reaction by 6 hours of the treatment with NE was obtained
